US6656911B2, “Serine protease inhibitors” (Cortech, Inc., priority 1994, dated 2003)

Target: T1, human neutrophil elastase (HNE) (Homo sapiens, UniProt P08246)
T1 sequence (P08246 30-267): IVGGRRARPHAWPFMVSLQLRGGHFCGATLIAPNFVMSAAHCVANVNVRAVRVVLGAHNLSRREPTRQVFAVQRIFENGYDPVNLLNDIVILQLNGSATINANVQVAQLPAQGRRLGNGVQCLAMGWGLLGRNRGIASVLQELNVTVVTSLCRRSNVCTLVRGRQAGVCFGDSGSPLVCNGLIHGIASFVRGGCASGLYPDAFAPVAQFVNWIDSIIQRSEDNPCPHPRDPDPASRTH
Assay: HNE Ki of CE compounds, tested as described in WO 96/16080
Format: biochemical
Details: read-out: HNE Ki

Row | Compound | Ki [nM]
1 | CC(C)[C@H](NC(=O)CN1C(=O)CN(Cc2ccccc2)C(=O)[C@@H]1Cc1ccccc1)C(=O)c1noc(CCN(C)C)n1 [CE2133, 4-[1-Benzyl-3-(S)-benzylpiperazine-2,5,-dione]-N-[1-(3-[5-(2-dimethylaminoethyl)-1,2,4-oxadiazolyl]carbonyl)-2-(S)-methylpropyl]acetamide] | 33000
2 | (R,S)-3-Amino-2-oxo-5-phenyl-1,4-(6-2′-chlorobenzodiazepine)-N-[1-(2-[5-phenyl-1,3,4-oxadiazolyl]carbonyl)-2-(R,S)-propyl]acetamide [CE2211] | 348
3 | CC(C)[C@H](NC(=O)[C@@H]1CCCN1C(=O)[C@@H](NC(=O)OCc1ccccc1)C(C)C)C(=O)c1noc(Cc2cccc(-c3ccccc3)c2)n1 [CE2062, (Benzyloxycarbonyl)-L-valyl-N-[1-(3-[5{3-phenylbenzyl)-1,2,4-oxadiazolyl]carbonyl)-2-(S)-methylpropyl]-L-prolinamide] | 0.3
4 | CC(C)[C@H](NC(=O)[C@@H]1CCCN1C(=O)[C@@H](NC(=O)OCc1ccccc1)C(C)C)C(=O)c1noc(C(c2ccccc2)c2ccccc2)n1 [CE2057] | 0.375
5 | CC(C)[C@H](NC(=O)[C@@H]1CCCN1C(=O)[C@@H](NC(=O)OCc1ccccc1)C(C)C)C(=O)c1noc(C(C)(C)c2cccc(C(F)(F)F)c2)n1 [CE2073, (Benzyloxycarbonyl)-L-valyl-N-[1-(3-[5-(α,α-dimethyl-3-trifluoromethylbenzyl)-1,2,4-oxadiazolyl]carbonyl)-2-(S)-methylpropyl]-L-prolinamide] | 0.235
6 | CC(C)[C@H](NC(=O)[C@@H]1CCCN1C(=O)[C@@H](NC(=O)OCc1ccccc1)C(C)C)C(=O)c1noc(Cc2ccc(-c3ccccc3)cc2)n1 [CE2058, (Benzyloxycarbonyl)-L-valyl-N-[1-(3-[5-(4-phenylbenzyl)-1,2,4-oxadiazolyl]carbonyl)-2-(S)-methylpropyl]-L-prolinamide] | 0.564
7 | CC(C)[C@H](NC(=O)CN(Cc1ccccc1)C(=O)c1ccc[nH]1)C(=O)c1noc(Cc2cccc(C(F)(F)F)c2)n1 [CE2097, (Pyrrole-2-carbonyl)-N-(benzyl)glycyl-N-[1-(3-[5-(3-trifluoromethylbenzyl)1-1,2,4-oxadiazolyl]carbonyl)-(S)-methylpropyl]amide] | 115
8 | CC(=O)N1CC(=O)N(CC(=O)N[C@H](C(=O)c2nnc(Cc3cccc(C)c3)o2)C(C)C)C(=Cc2ccc(F)cc2)C1=O [CE2105, 1-Acetyl-3-(4-fluorobenzylidene) piperazine-2,5-dione-N-[1-(2-[5-(3-methylbenzyl)-1,3,4-oxadiazolyl]carbonyl)-2-(S)-methylpropyl]acetamide] | 0.72
9 | Cc1cccc(Cc2nnc(C(=O)C(NC(=O)CN3C(=O)CCCC3c3ccc(F)cc3)C(C)C)o2)c1 [CE2087, 6-[4-Fluorophenyl]-ε-lactam-N-[1-(2-[5-(3-methylbenzyl)-1,3,4-oxadiazolyl]carbonyl)-2-(S)-methylpropyl]acetamide] | 20
10 | CC(C)[C@H](NC(=O)CN1C(=O)CN(Cc2ccccc2)C(=O)[C@@H]1Cc1ccccc1)C(=O)c1noc(Cc2cccc(C(F)(F)F)c2)n1 [CE2129, 4-[1-Benzyl-3-(S)-benzylpiperazine-2,5,-dione]-N-[1-(3-[5-(3-trifluoromethylbenzyl)-1,2,4-oxadiazolyl]carbonyl)-2-(S)-methylpropyl]acetamide] | 300
11 | CC(C)[C@H](NC(=O)Cn1c(-c2ccc(F)cc2)ncc(NC(=O)OCc2ccccc2)c1=O)C(=O)c1noc(Cc2cccc(C(F)(F)F)c2)n1 [CE2089, 2-[5-[(Benzyloxycarbonyl]amino]-6-oxo-2-(4-fluorophenyl)-1,6-dihydro-1-pyrimidinyl]-N-[1-(3-[5-(3-trifluoromethylbenzyl)-1,2,4-oxadiazolyl]carbonyl)7(S)-2-methylpropyl]acetamide] | 1.5
12 | COC(=O)c1c(F)c2ccccc2n(CC(=O)N[C@H](C(=O)c2nnc(Cc3cccc(C)c3)o2)C(C)C)c1=O [CE2117, 3-Carbomethoxy-4-fluoro-quinoline-2-one-N-[1-(2-[5-(3-methylbenzyl)-1,3,4-oxadiazolyl]carbonyl)-2-(S)-methylpropyl]acetamide] | 586
13 | Cc1cccc(Cc2nnc(C(=O)C(NC(=O)CN3C(=O)CSC3c3ccccc3)C(C)C)o2)c1 [CE2121, 2-[2-(R,S)-Phenyl-4-oxothiazolidin-3-yl]-N-[1-(2-[5-(3-methylbenzyl)-1,3,4-oxadiazolyl]carbonyl)-2-(S)-methylpropyl]acetamide] | 28
14 | 3-(S)-Amino-ε-lactam-N-[1-(2-[5-(3-methylbenzyl)-1,3,4-oxadiazolyl]carbonyl)-2-(S)-methylpropyl]acetamide trifluoroacetic acid salt [CE2080] | 62

Now from value to compound:

Row | Ki [nM] | Compound
15 | 0.15 | Cc1cccc(Cc2nnc(C(=O)[C@@H](NC(=O)[C@@H]3CCCN3C(=O)[C@@H](NS(=O)(=O)c3ccccc3)C(C)C)C(C)C)o2)c1 [CE2168, Phenylsulfonyl-L-valyl-N-[1-(2-[5-(3-methylbenzyl)-1,3,4-oxadiazolyl]carbonyl)-2-(S)-methylpropyl]-L-prolinamide]
16 | 54 | CC(C)C(NC(=O)CN1C(=O)C(c2ccccc2)N(C)C1=O)C(=O)c1noc(Cc2cccc(C(F)(F)F)c2)n1 [CE2182, 5-(R,S)-Phenyl-1-methyl-2,4-imidazolidinedione-N-[1-(3-[5-(3-trifluoromethylbenzyl)-1,2,4-oxadiazolyl]carbonyl)-2-(S)-methylpropyl]acetamide]
17 | 42 | CC(C)[C@H](NC(=O)CN1C(=O)CN(Cc2ccc3c(c2)OCCO3)C(=O)[C@@H]1Cc1ccccc1)C(=O)c1noc(Cc2cccc(C(F)(F)F)c2)n1 [CE2187]
18 | 13.7 | CC(C)[C@H](NC(=O)CN1C(=O)NC(c2ccc(N(C)C)cc2)C1=O)C(=O)c1noc(Cc2cccc(C(F)(F)F)c2)n1 (stereo partly drawn) [CE2200, [4-(R,S)-(4-Dimethylaminophenyl)]-2,5-imidazolidinedione-N-[1-(3-[5-(3-trifluoromethylbenzyl)-1,2,4-oxadiazolyl]carbonyl)-2-(S)-methylpropyl]acetamide]
19 | 4.8 | Cc1cccc(Cc2nnc(C(=O)[C@@H](NC(=O)CN3C(=O)CN(Cc4ccc5c(c4)OCCO5)C(=O)[C@H]3Cc3ccccc3)C(C)C)o2)c1 [CE2197, 4-[1-(3,4-Ethylenedioxybenzyl)-3-(R)-benzylpiperazine-2,5-dione]-N-[1-(2-[5-(3-methylbenzyl)-1,3,4-oxadiazolyl]carbonyl)-2-(S)-methylpropyl]acetamide]
20 | 204 | Cc1cccc(Cc2nnc(C(=O)[C@@H](NC(=O)Cn3c(=O)c4ccccc4n(C(=O)c4ccccc4)c3=O)C(C)C)o2)c1 [CE2140, (1-Benzoyl-3,8-quinazolinedione)-N-[1-(2-[5-(3-methylbenzyl)-1,3,4-oxadiazolyl]carbonyl)-2-(S)-methylpropyl]acetamide]
21 | 9.3 | Cc1cccc(Cc2nnc(C(=O)[C@@H](NC(=O)CN3C(=O)CN(Cc4ccccc4)C(=O)[C@H]3Cc3ccccc3)C(C)C)o2)c1 [CE2144, 4-[1-Benzyl-3-(R)-benzyl-piperazine-2,5,-dione]-N-[1-([5-(3-methylbenzyl)-1,3,4-oxadiazolyl]carbonyl)-2-(S)-methylpropyl]acetamide]
22 | 145 | Cc1cccc(Cc2nnc(C(=O)[C@@H](NC(=O)Cn3c(=O)[nH]n(-c4ccccc4)c3=O)C(C)C)o2)c1 [CE2166, 1-Phenyl-1,2,4-triazolidine-3,5-dione-N-[1-(2-[5-(3-methylbenzyl)-1,3,4-oxadiazolyl]carbonyl)-2-(S)-methylpropyl]acetamide]
23 | 8.7 | Cc1cccc(Cc2nnc(C(=O)[C@@H](NC(=O)CN3C(=O)N[C@H](Cc4ccccc4)C3=O)C(C)C)o2)c1 [CE2142, 5-(R)-Benzyl-2,4-imidazolidinedione-N-[1-(2-[5-(3-methylbenzyl)-1,3,4-oxadiazolyl]carbonyl)-2-(S)-methylpropyl]acetamide]
24 | 0.23 | Cc1cccc(Cc2nnc(C(=O)C(NC(=O)C3Cc4ccccc4CN3C(=O)C(NC(=O)OCc3ccccc3)C(C)C)C(C)C)o2)c1 [CE2183, Benzyloxycarbonyl-L-valyl-(1,2,3,4-tetrahydroisoquinoline)-3-N-[1-(2-[5-(3-methylbenzyl)-1,3,4-oxadiazolyl]carbonyl)-2-(R,S)-methylpropyl]amide]
25 | 294 | Cc1cccc(Cc2nnc(C(=O)[C@@H](NC(=O)CN3CC(=O)N(C(=O)c4ccccc4)CC3=O)C(C)C)o2)c1 [CE2138, (1-Benzoyl-3,6-piperazinedione)-N-[1-(2-[5-(3-S methylbenzyl)-1,3,4-oxadiazolyl]carbonyl)-2-(S)-methylpropyl]acetamide]
26 | 0.64 | CC(C)[C@H](NC(=O)[C@@H]1CCCN1C(=O)[C@@H](NC(=O)c1cccnc1)C(C)C)C(=O)c1noc(Cc2cccc(C(F)(F)F)c2)n1 [CE2171, (3-Pyridylcarbonyl)-L-valyl-N-[1-(3-[5-(3-trifluoromethylbenzyl)-1,2,4-oxadiazolyl]carbonyl)-2-(S)-methylpropyl]-L-prolinamide]
27 | 297 | Cc1cccc(Cc2nnc(C(=O)[C@@H](NC(=O)OCc3ccccc3)C(C)C)o2)c1 [CE2170]
28 | 52 | Cc1cccc(Cc2nc(C(=O)C(NC(=O)[C@@H]3Cc4cccc5c4N3C(=O)[C@@H](N)CC5)C(C)C)no2)c1 (stereo partly drawn) [CE2220, (2S,5S)-5-Amino-1,2,4,5,6,7-hexahydroazepino-[3.2.1]-indole-4-one-carbonyl-N-[1-(3-[5-(3-methylbenzyl)-1,2,4-oxadiazolyl]carbonyl)-2-(R,S)-methylpropyl]amide]
29 | 52 | Cc1cccc(Cc2nnc(C(=O)[C@@H](NC(=O)Cn3c(=O)[nH]n(Cc4ccccc4)c3=O)C(C)C)o2)c1 [CE2176, 1-Benzyl-1,2,4-triazolidine-3,5-dione-N-[1-(2-[5-(3-methylbenzyl)-1,3,4-oxadiazolyl]carbonyl)-2-(S)-methylpropyl]acetamide]
